Test results published in ChEMBL document CHEMBL5729175, “Pharmaceutical composition for preventing or treating acute myeloid leukemia or metastatic breast cancer” (2022).

target: T1, Receptor-type tyrosine-protein kinase FLT3 (Homo sapiens, UniProt P36888); test: In Vitro Kinase Assay: The inhibition of the FLT3 kinase activity was measured with homogeneous, time-resolved fluorescence (HTRF) assays. Recombinant proteins containing the FLT3 kinase domain were purchased from Invitrogen (Carlsbad, Calif., USA). Optimal enzyme, ATP, and substrate concentrations were established with the HTRF KinEASE kit (Cisbio, France) according to the manufacturer's instructions. The FLT3 enzymes were mixed with serially diluted compounds and peptide substrates in a kinase reaction buffer (50 mM HEPES (pH 7.0), 500 μM ATP, 0.1 mM sodium orthovanadate, 5 mM MgCl2, 1 mM DTT, 0.01% bovine serum albumin (BSA), and 0.02% NaN3). Ten microliters of the total volume of the kinase reaction were added to the wells of a 96-well assay plate. The kinase reactions were incubated for 30 min at 25° C. For the detection of the phospho-substrate, the Eu3b-Cryptate-conjugated mouse monoclonal antibody (PT66) and the streptavidin-XL665 (SA-XL) were added, and the reactions were then incubated for 1 hour at 25° C. The signal was measured on an Victor X5 multi-label reader (PerkinElmer, Waltham, Mass., USA).
T1 sequence (P36888 whole entry): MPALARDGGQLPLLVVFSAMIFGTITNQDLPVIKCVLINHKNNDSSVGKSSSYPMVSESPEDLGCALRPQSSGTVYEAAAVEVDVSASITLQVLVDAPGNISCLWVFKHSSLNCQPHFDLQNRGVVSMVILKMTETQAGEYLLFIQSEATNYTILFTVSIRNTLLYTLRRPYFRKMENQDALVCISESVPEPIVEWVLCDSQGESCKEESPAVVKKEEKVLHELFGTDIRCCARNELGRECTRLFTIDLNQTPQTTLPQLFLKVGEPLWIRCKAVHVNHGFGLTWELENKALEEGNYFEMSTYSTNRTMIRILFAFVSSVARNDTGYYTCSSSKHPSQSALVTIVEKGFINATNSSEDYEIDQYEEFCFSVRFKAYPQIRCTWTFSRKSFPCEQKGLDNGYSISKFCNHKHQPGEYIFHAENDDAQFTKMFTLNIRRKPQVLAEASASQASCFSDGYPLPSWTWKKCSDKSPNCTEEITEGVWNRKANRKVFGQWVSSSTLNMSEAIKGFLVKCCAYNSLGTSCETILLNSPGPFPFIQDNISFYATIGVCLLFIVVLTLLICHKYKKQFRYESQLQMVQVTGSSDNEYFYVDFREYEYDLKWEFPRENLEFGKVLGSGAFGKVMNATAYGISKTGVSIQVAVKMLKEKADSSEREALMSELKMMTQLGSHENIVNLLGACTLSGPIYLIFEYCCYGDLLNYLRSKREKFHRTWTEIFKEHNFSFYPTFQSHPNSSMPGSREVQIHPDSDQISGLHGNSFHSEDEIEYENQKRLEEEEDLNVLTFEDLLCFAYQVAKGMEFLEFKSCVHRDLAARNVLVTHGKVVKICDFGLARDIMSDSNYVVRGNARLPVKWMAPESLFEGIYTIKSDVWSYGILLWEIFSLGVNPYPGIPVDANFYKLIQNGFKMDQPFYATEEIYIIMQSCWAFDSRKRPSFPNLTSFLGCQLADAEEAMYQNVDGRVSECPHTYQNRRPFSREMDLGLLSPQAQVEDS

IC50 [nM]	SMILES
0.9	O=C1Nc2ccc(F)cc2/C1=C1/Nc2ccccc2/C1=N\OCCN1CCNCC1
7.42	CN1CCN(CCO/N=C2/C(=C3/C(=O)Nc4ccccc43)Nc3ccccc32)CC1
3.2	CN1CCN(CCO/N=C2/C(=C3/C(=O)Nc4ccc(F)cc43)Nc3ccccc32)CC1
51.9	O=C1Nc2ccccc2/C1=C1/Nc2ccccc2/C1=N\OCCN1CCCC1
35.5	O=C1Nc2ccc([N+](=O)[O-])cc2/C1=C1/Nc2ccc(F)cc2/C1=N\OCCN1CCNCC1
251	O=C1Nc2ccccc2/C1=C1/Nc2ccccc2/C1=N\OCCN1CCCCC1
35.5	CN1CCN(CCO/N=C2/C(=C3/C(=O)Nc4ccc([N+](=O)[O-])cc43)Nc3ccc(F)cc32)CC1
40.4	CN1CCN(CCO/N=C2/C(=C3/C(=O)Nc4ccc(F)cc43)Nc3ccc(F)cc32)CC1
26.2	O=C1Nc2ccc(F)cc2/C1=C1/Nc2ccc(F)cc2/C1=N\OCCN1CCNCC1
1.8	O=C1Nc2ccc(I)cc2/C1=C1/Nc2ccccc2/C1=N\OCCN1CCNCC1
2.4	CN1CCN(CCO/N=C2/C(=C3/C(=O)Nc4ccc(Cl)cc43)Nc3ccccc32)CC1
81.5	NC1CCN(CCO/N=C2/C(=C3/C(=O)Nc4ccc(F)cc43)Nc3ccc(F)cc32)CC1
253	COC(=O)c1ccc2c(c1)/C(=C1/Nc3ccccc3/C1=N\OCCN1CCOCC1)C(=O)N2
5.8	CN1CCN(CCO/N=C2/C(=C3/C(=O)Nc4ccc(I)cc43)Nc3ccccc32)CC1
1.3	O=C1Nc2ccc(Cl)cc2/C1=C1/Nc2ccccc2/C1=N\OCCN1CCNCC1
112	O=C1Nc2ccc([N+](=O)[O-])cc2/C1=C1/Nc2ccc(F)cc2/C1=N\OCCN1CCCC1
453	O=C1Nc2ccc([N+](=O)[O-])cc2/C1=C1/Nc2ccc(F)cc2/C1=N\OCCN1CCCCC1
1	O=C1Nc2ccc(Br)cc2/C1=C1/Nc2ccccc2/C1=N\OCCN1CCNCC1
